From US5610297A, “Peptides ketoamides” (Georgia Tech Research Corp., priority 1995, dated 1997) come the findings set out here.

The structures appear in SMILES notation.

For orientation: Ki means a measure of affinity in units of concentration, obtained from inhibition or displacement.

One data set deals with Calpain II from rabbit muscle. The experiment in a line: Inhibition of calpain II (Suc-Leu-Tyr-AMC hydrolysis). The format is biochemical.
Details: not given
On the procedure: (§1) Materials and Methods. HEPES, heparin, and A23187 were obtained from Calbiochem. Suc-Leu-Tyr-AMC and chromogenic substrates were obtained from Sigma. Calpain I was purified from human erythrocytes according to the method of Kitahara (Kitahara et al., J. Biochem. 95, 1759-1766) omitting the Blue-Sepharose step. Calpain II from rabbit muscle and cathepsin B were purchased from Sigma. Papain was purchased from Calbiochem.
(§2) Assay of Inhibitory Potency. Peptide α-ketoamides were assayed as reversible enzyme inhibitors. Various concentrations of inhibitors in Me2 SO were added to the assay mixture which contained buffer and substrate. The reaction was started by the addition of the enzyme and the hydrolysis rates were followed spectrophotometrically or fluorimetrically.
(§3) Calpain I from human erythrocytes and calpain II from rabbit were assayed using Suc-Leu-Tyr-AMC [Sasaki et al., J. Biol. Chem. 259, 12489-12494 (1984); incorporated herein by reference], and the AMC (7-amino-4-methylcoumarin) release was followed fluorimetrically (excitation at 380 nm, and emmision at 460 nm). Calpains were assayed in 25 mM Tris pH=8.0, 10 mM CaCl2. Fluorescence was followed using a Gilson FL-1A fluorometer or a Perkin-Elmer 203 Fluorescence spectrometer. Cathepsin B was assayed in 20 mM sodium acetate pH=5.2, 0.5 mM dithiothreitol using Bz-Phe-Val-Arg-p-nitroanilide as substrate. Alternately, cathepsin B was assayed with Z-Arg-Arg-AFC [Barrett and Kirschke, Methods Enzymol. 80, 535-561 (1981); incorporated herein by reference], and the AFC (7-amino-4-trifluoromethylcoumarin) release was followed fluorimetrically (excitation at 400 nm and emmision at 505 nm). Papain was assayed in 100 mM KPO4, 1 mM EDTA, 2.5 mM cysteine pH=6.0 using Bz-Arg-AMC or Bz-Arg-NA [Kanaoka et al., Chem. Plmrm. Bull. 25, 3126-3128 (1977); incorporated herein by reference] as a substrate. The AMC (7-amino-4-methylcoumarin) release was followed fluorimetrically (excitation at 380 nm, and emmision at 460 nm). Enzymatic hydrolysis rates were measured at various substrate and inhibitor concentrations, and KI values were determined by either Lineweaver-Burk plots or Dixon plots.
(§4) A 0.1M Hepes, 0.5M NaCl, pH 7.5 buffer was utilized for human leukocyte elastase (HLE), porcine pancreatic elastase (PPE), chymotrypsin and cathepsin G. A 0.1 Hepes, 0.01M CaCl2, pH 7.5 buffer was utilized for trypsin, plasmin, and coagulation enzymes. A 50 mM Tris-HCl, 2 mM EDTA, 5 mM cysteine, pH 7.5 was used as a buffer for papain. A 88 mM KH2 PO4, 12 mM Na2 HPO4, 1.33 mM EDTA, 2.7 mM cysteine, pH 6.0 solution was used as a buffer for cathepsin B. A 20 mM Hepes, 10 mM CaCl2, 10 mM mercatoethanol, pH 7.2 buffer was utilized for calpain I and calpain II.
For `CC[C@H](NC(=O)[C@H](CC(C)C)NC(=O)OCc1ccccc1)C(=O)C(=O)NCCc1ccccc1` [Z--Leu--Abu--CONH--(CH2)2 --Ph, Z-Leu-Abu-CONH-(CH2)2 Ph], the Ki is 22 nM.

Turning to `CCC(NC(=O)C(CC(C)C)NC(=O)OCc1ccccc1)C(=O)C(=O)NCCO` (stereo not drawn) [Z--Leu--Abu--CONH--(CH2)2 OH, Z-Leu-Abu-CONH-(CH2)2 OH], the Ki amounted to 78 nM.

Take `CC[C@H](NC(=O)[C@H](CC(C)C)NC(=O)OCc1ccccc1)C(=O)C(=O)NCCCN1CCOCC1` [Z--Leu--Abu--CONH--(CH2)3 --Mpl, Z-Leu-Abu-CONH-(CH2)3 --N(CH2 CH2)2 O]: affinity was put at a Ki of 41 nM.

Turning to `CCCCCCCCNC(=O)C(=O)[C@H](CC)NC(=O)[C@H](CC(C)C)NC(=O)OCc1ccccc1` [Z--Leu--Abu--CONH--(CH2)7 CH3, Z-Leu-Abu-CONH--(CH2)7 CH3], the affinity corresponds to a Ki of 19 nM.

`CCC(NC(=O)C(CC(C)C)NC(=O)OCc1ccccc1)C(=O)C(=O)NCc1ccccc1` (stereo not drawn) [Z--Leu--Abu--CONH--Bzl, Z-Leu-Abu-CONH-Bzl]: the Ki came to 350 nM.

For `CCC(NC(=O)C(CC(C)C)NC(=O)OCc1ccccc1)C(=O)C(=O)NCC(C)C` (stereo not drawn) [Z--Leu--Abu--CONH--iBu, Z-Leu-Abu-CONH-iBu], the affinity corresponds to a Ki of 140 nM.

Take `CC(C)C[C@H](NC(=O)OCc1ccccc1)C(=O)N[C@@H](Cc1ccccc1)C(=O)C(=O)NCCc1ccccc1` [Z--Leu--Phe--CONH(CH2)2 Ph, Z-Leu-Phe-CONH-(CH2)2 Ph]: the Ki was found to be 24 nM.

As for `CC(C)C[C@H](NC(=O)OCc1ccccc1)C(=O)N[C@@H](Cc1ccccc1)C(=O)C(=O)NCc1ccccc1` [Z--Leu--Phe--CONH--Bzl, Z-Leu-Phe-CONH-Bzl], the Ki was 46 nM.

In the case of `CC(C)CNC(=O)C(=O)[C@H](Cc1ccccc1)NC(=O)[C@H](CC(C)C)NC(=O)OCc1ccccc1` [Z--Leu--Phe--CONH--iBu, Z-Leu-Phe-CONH-iBu], the Ki worked out at 65 nM.

The target of another data set is cathepsin B. The experiment in a line: Inhibition of cathepsin B. The data set is classed as biochemical. To be noted: read-out: KI Cath B. As for the experimental part: as §1, §2, §3, §4
Turning to `CCC(NC(=O)C(CC(C)C)NC(=O)OCc1ccccc1)C(=O)C(=O)NCc1ccccc1` (stereo not drawn) [Z--Leu--Abu--CONH--Bzl, Z-Leu-Abu-CONH-Bzl], the Ki worked out at 2000 nM.

For `CCC(NC(=O)C(CC(C)C)NC(=O)OCc1ccccc1)C(=O)C(=O)NCC(C)C` (stereo not drawn) [Z--Leu--Abu--CONH--iBu, Z-Leu-Abu-CONH-iBu], the Ki is 4000 nM.

`CC(C)CNC(=O)C(=O)[C@H](Cc1ccccc1)NC(=O)[C@H](CC(C)C)NC(=O)OCc1ccccc1` [Z--Leu--Phe--CONH--iBu, Z-Leu-Phe-CONH-iBu]: the Ki stood at 4000 nM.

The target in a further data set is chymotrypsin (Bos taurus, UniProt P00766, DEL14-15/DEL147-148). The experiment in a line: Inhibition of chymotrypsin (Suc-Val-Pro-Phe-NA hydrolysis). The format is biochemical, bovine.
Details: not given
On the procedure: as §2, §4
(§5) HLE and PPE were assayed with MeO-Suc-Ala-Ala-Pro-Val-NA and Suc-Ala-Ala-Ala-NA, respectively [Nakajima et al., J. Biol. Chem. 254, 4027-4032 (1979); incorporated herein by reference]. Human leukocyte cathepsin G and chymotrypsin Aα were assayed with Suc-Val-Pro-Phe-NA [Tanaka et al., Biochemistry 24, 2040-2047 (1985); incorporated herein by reference]. The hydrolysis of peptide 4-nitroanilides was measured at 410 nm [ε410 =8800 M^-1 cm^-1; Erlanger et al., Arch. Biochem. Biophys. 95, pp 271-278 (1961); incorporated herein by reference]. Trypsin, thrombin, human plasma kallikrein, porcine pancreatic kallikrein, human factor XIa, and human plasmin were assayed with Z-Arg-SBzl or Z-Gly-Arg-SBu-i [McRae et al., Biochemistry 20, 7196-7206 (1981); incorporated herein by reference]. All peptide thioester hydrolysis rates were measured with assay mixtures containing 4,4'-dithiodipyridine [ε324 =19800 M^-1 cm^-1; Grasetti & Murray, Arch. Biochem. Biophys. 119, 41-49 (1967); incorporated herein by reference].
With `CCC(NC(=O)C(CC(C)C)NC(=O)OCc1ccccc1)C(=O)C(=O)NCc1ccccc1` (stereo not drawn) [Z--Leu--Abu--CONH--Bzl, Z-Leu-Abu-CONH-Bzl], the Ki was more than 300000 nM.

On to `CCC(NC(=O)C(CC(C)C)NC(=O)OCc1ccccc1)C(=O)C(=O)NCC(C)C` (stereo not drawn) [Z--Leu--Abu--CONH--iBu, Z-Leu-Abu-CONH-iBu], for which the Ki was more than 300000 nM.

Turning to `CC(C)CNC(=O)C(=O)[C@H](Cc1ccccc1)NC(=O)[C@H](CC(C)C)NC(=O)OCc1ccccc1` [Z--Leu--Phe--CONH--iBu, Z-Leu-Phe-CONH-iBu], the Ki worked out at 24000 nM.

In the next data set the target is porcine pancreatic elastase (PPE) (Sus scrofa, UniProt P00772). The experiment in a line: Inhibition of PP elastase (Suc-Ala-Ala-Ala-NA hydrolysis). The format is biochemical.
porcine pancreatic elastase (PPE), sequence (P00772 27-266): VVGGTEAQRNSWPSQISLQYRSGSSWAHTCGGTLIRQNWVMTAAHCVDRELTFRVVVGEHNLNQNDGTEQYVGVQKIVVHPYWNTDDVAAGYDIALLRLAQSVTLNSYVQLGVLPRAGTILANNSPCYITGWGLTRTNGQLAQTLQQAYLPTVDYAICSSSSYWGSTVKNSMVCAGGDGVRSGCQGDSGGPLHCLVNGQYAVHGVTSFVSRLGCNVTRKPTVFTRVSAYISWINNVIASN
Details: not given
On the procedure:
as §2, §4, §5
With `CCC(NC(=O)C(CC(C)C)NC(=O)OCc1ccccc1)C(=O)C(=O)NCC(C)C` (stereo not drawn) [Z--Leu--Abu--CONH--iBu, Z-Leu-Abu-CONH-iBu], the Ki worked out at 40000 nM.

Tested on in the next data set: not listed separately
The experiment in a line: Half-life in plasma. To be noted: unit inferred, unit assumed. The data set is classed as in vitro ADME.
For the compound `CCOC(=O)C(=O)[C@H](CC)NC(=O)[C@H](CC(C)C)NC(=O)[C@H](CC(C)C)NC(=O)c1ccc2ccccc2c1` [2-NapCO--Leu--Leu--Abu--COOEt], the t 1/2 plasma worked out at 0.417 h.

Take `CCC(NC(=O)C(CC(C)C)NC(=O)OCc1ccccc1)C(=O)C(=O)NCc1ccccc1` (stereo not drawn) [Z--Leu--Abu--CONH--Bzl, Z-Leu-Abu-CONH-Bzl]: the t 1/2 plasma was more than 1 h.

In turn, `CCC(NC(=O)C(CC(C)C)NC(=O)OCc1ccccc1)C(=O)C(=O)NCC(C)C` (stereo not drawn) [Z--Leu--Abu--CONH--iBu, Z-Leu-Abu-CONH-iBu] gave a t 1/2 plasma of more than 1 h.

On to `CC(C)C[C@H](NC(=O)OCc1ccccc1)C(=O)N[C@@H](Cc1ccccc1)C(=O)C(=O)NCCc1ccccc1` [Z--Leu--Phe--CONH(CH2)2 Ph, Z-Leu-Phe-CONH-(CH2)2 Ph], for which the t 1/2 plasma is more than 1 h.

Compound `CC(C)CNC(=O)C(=O)[C@H](Cc1ccccc1)NC(=O)[C@H](CC(C)C)NC(=O)OCc1ccccc1` [Z--Leu--Phe--CONH--iBu, Z-Leu-Phe-CONH-iBu] came in with a t 1/2 plasma of more than 1 h.

Tested on in another data set: not listed separately
Description: Half-life in liver. The format is in vitro ADME. Particulars: unit inferred, unit assumed.
`CCC(NC(=O)C(CC(C)C)NC(=O)OCc1ccccc1)C(=O)C(=O)NCc1ccccc1` (stereo not drawn) [Z--Leu--Abu--CONH--Bzl, Z-Leu-Abu-CONH-Bzl]: the t 1/2 liver was more than 1 h.

In a further data set the test system is Calpain-mediated breakdown of spectrin in platelets. The experiment in a line: Platelet membrane permeability assay. Set-up: unit not given here. The data set is classed as cell-based, rat. Particulars: numeric value, unit not given. On the procedure: Platelet membrane permeability assay. Calpain-mediated breakdown of spectrin was measured by quantitative densitometry of the calpain-specific 150/155 kDa spectrin fragment doublet [see Siman et al., Proc. Natl. Acad. Sci. USA 81, 3572-3576 (1984)]. Platelets were isolated by a modification of the method of Ferrell and Martin [J. Biol. Chem. 264, 20723-20729 (1989)]. Blood (15-20 ml) was drawn from male Sprague-Dawley rats into 1/10th volume of 100 mM EDTA-citrate, and centrifuged 10 minutes at 2000 rpm in a clinical centrifuge at room temperature. […] Platelets were washed once in 15 ml buffer 1, then resuspended to 10^7 cells/ml in buffer 2 (136 mM NaCl, 2.7 mM KCl, 0.42 mM NaH2 PO4, 12 mM NaHCO3, 2mM MgCl, 1 mg/ml BSA (Sigma), 5.6 mM glucose, 20 mM HEPES (Sigma) pH 7.4) and allowed to "rest" for a minimum of 10 minutes at room temperature before use.
Inhibitors were added from stock solutions made fresh in DMSO. 100 μl platelets, suspended to 10^7 cells/ml in buffer 2, were incubated with 1 μl of an inhibitor solution for 5 minutes at room temperature prior to the addition of 2 mM Ca^2+ and 1 uM A23 187. After 10 minutes total exposure to inhibitor (5 minutes exposure to ionophore) at room temperature, platelets were reisolated at 14,000 rpm for 10 sec in a Beckman microfuge, dissolved in SDS-PAGE sample buffer, and heated to 90° C. for 3 minutes.
Samples were subjected to SDS-PAGE in 4-12% gradient mini gels (Novex) and transferred to nitrocellulose (Schleicher and Schuell 0.45 um) by electroblotting. Filters were blocked for 10 minutes in 0.25% gelatin, 1% BSA, 0.25% triton X100, 0.9% NaCl, 10 mM Tris-Cl pH 7.5, incubated overnight in the same solution containing antibody to rat spectrin, washed 3×10 minutes with 10 mM Tris-Cl pH 7.5, 0.5% triton X100, incubated 4 hours in wash buffer plus alkaline phosphatase conjugated goat anti-rabbit antibody (Biorad), and washed as above. Blots were developed using the Biorad AP conjugate substrate kit. Quantitative densitometry was used to obtain values for the intact spectrin bands and the 150/155 kDa breakdown product doublet.
As for `CCC(NC(=O)C(CC(C)C)NC(=O)OCc1ccccc1)C(=O)C(=O)NCc1ccccc1` (stereo not drawn) [Z--Leu--Abu--CONH--Bzl, Z-Leu-Abu-CONH-Bzl], the “platelet (Activity in the Platelet Assay)” value (shortened to “platelet”) amounted to 1.5.

As to `CCC(NC(=O)C(CC(C)C)NC(=O)OCc1ccccc1)C(=O)C(=O)NCC(C)C` (stereo not drawn) [Z--Leu--Abu--CONH--iBu, Z-Leu-Abu-CONH-iBu], the “platelet” value is listed as 28.

In the case of `CC(C)C[C@H](NC(=O)OCc1ccccc1)C(=O)N[C@@H](Cc1ccccc1)C(=O)C(=O)NCCc1ccccc1` [Z--Leu--Phe--CONH(CH2)2 Ph, Z-Leu-Phe-CONH-(CH2)2 Ph], the “platelet” value is 3.0.

For `CC(C)CNC(=O)C(=O)[C@H](Cc1ccccc1)NC(=O)[C@H](CC(C)C)NC(=O)OCc1ccccc1` [Z--Leu--Phe--CONH--iBu, Z-Leu-Phe-CONH-iBu], the “platelet” value is reported as 22.
